For one data set, the target named is T1, human SGLT2 (Homo sapiens, UniProt P31639, I433V).
T1 construct: expressed in transfected cells; host or cells: COS-7 cells (RIKEN CELL BANK RCB0539), transient electroporation with KL29
T1 sequence (P31639 1-672 I433V): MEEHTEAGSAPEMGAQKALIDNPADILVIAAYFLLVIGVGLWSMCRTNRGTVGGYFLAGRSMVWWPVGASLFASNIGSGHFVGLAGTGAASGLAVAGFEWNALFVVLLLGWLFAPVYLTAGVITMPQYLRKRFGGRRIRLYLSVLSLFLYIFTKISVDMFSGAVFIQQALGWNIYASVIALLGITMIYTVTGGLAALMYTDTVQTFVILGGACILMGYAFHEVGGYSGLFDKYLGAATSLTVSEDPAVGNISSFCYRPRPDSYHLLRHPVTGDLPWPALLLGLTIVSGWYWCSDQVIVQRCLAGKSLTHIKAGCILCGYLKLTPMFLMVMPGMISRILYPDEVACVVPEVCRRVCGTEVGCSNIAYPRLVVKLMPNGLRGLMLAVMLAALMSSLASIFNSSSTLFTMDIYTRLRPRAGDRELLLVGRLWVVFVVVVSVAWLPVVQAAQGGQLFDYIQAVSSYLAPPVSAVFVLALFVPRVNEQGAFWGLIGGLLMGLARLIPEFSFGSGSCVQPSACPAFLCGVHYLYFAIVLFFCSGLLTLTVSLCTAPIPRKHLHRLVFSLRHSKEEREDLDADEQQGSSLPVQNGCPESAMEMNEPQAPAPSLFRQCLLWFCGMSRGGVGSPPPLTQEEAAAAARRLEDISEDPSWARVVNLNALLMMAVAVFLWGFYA
The data set can be described thus: Assay for inhibitory effect on human SGLT2 activity (uptake of methyl-α-D-glucopyranoside in COS-7 cells transiently expressing human SGLT2). Format: cell-based. Conditions: uptake of methyl-α-D-(U-14C)-glucopyranoside, 37° C., 2 hours. As for the experimental part: Assay for Inhibitory Effect on Human SGLT2 Activity
1) Construction of the Plasmid Vector Expressing Human SGLT2
Preparation of the cDNA library for PCR amplification was performed by reverse transcription of a total RNA deprived from human kidney (Ori gene) with oligo dT as the primer, using […] Preamplification System (Gibco-BRL: LIFE TECHNOLOGIES). The DNA fragment coding for human SGLT2 was amplified by the PCR reaction, in which the human kidney cDNA library described above was used as the template and the following oligo nucleotides 0702F and 0712R, presented as Sequence Number 1 and 2 respectively, were used as the primers. The amplified DNA fragment was ligated into pCR-Blunt (Invitrogen), a vector for cloning, according to standard method of the kit. The Escherichia coli HB101 (Toyobo) was transformed according to usual method and then selection of the transformants was performed on the LB agar medium containing 50 μg/mL of kanamycin. After the plasmid DNA was extracted and purified from the one of the transformants, amplifying of the DNA fragment coding for human SGLT2 was performed by the PCR reaction, in which the following oligo nucleotides 0714F and 0715R, presented as Sequence Number 3 and 4 respectively, were used as the primers. The amplified DNA fragment was digested with restriction enzymes, Xho I and Hind III, and then purified with Wizard Purification System (Promega). This purified DNA fragment was inserted at the corresponding restriction sites of pcDNA3.1 (−) Myc/His-B (Invitrogen), a vector for expressing of fusion protein. The Escherichia coli HB101 was transformed according to usual method and then selection of the transformant was performed on the LB agar medium containing 100 μg/mL of ampicillin. After the plasmid DNA was extracted and purified from this transformant, the base sequence of the DNA fragment inserted at the multi-cloning sites of pcDNA3.1 (−) Myc/His-B was analyzed. […] Sequentially, a clone in which valine is substituted for the isoleucine-433 was obtained. This plasmid vector expressing human SGLT2 in which the peptide presented as Sequence Number 5 is fused to the carboxyl terminal alanine residue was designated KL29.
2) Preparation of the Cells Expressing Transiently Human SGLT2
KL29, the plasmid coding human SGLT2, was transfected into COS-7 cells (RIKEN CELL BANK RCB0539) by electroporation. Electroporation was performed with GENE PULSER II (Bio-Rad Laboratories) under the condition: 0.290 kV, 975 μF, 2×10^6 cells of COS-7 cell and 20 μg of KL29 in 500 μL of OPTI-MEM I medium (Gibco-BRL: LIFE TECHNOLOGIES) in the 0.4 cm type cuvette. After the gene transfer, the cells were harvested by centrifugation and resuspended with OPTI-MEM I medium (1 mL/cuvette). To each well in 96-wells plate, 125 μL of this cell suspension was added. After overnight culture at 37° C. under 5% CO2, 125 μL of DMEM medium which is containing 10% of fetal bovine serum (Sanko Jyunyaku), 100 units/mL sodium penicillin G (Gibco-BRL: LIFE TECHNOLOGIES), 100 μg/mL streptomycin sulfate (Gibco-BRL: LIFE TECHNOLOGIES) was added to each well. After a culture until the following day, these cells were used for the measurement of the inhibitory activity against the uptake of methyl-α-D-glucopyranoside.
3) Measurement of the Inhibitory Activity Against the Uptake of methyl-α-D-glucopyranoside […]

The test system of a further data set is SD rats. Description: Assay for the facilitatory effect on urinary glucose excretion. Format: in vivo, rat. Conditions: male SD rats, oral glucose 2 g/kg, urine collected 24 hours. The method, then: Assay for the Facilitatory Effect on Urinary Glucose Excretion
As experimental animals, overnight fasted SD rats (Japan SLC. Inc., male, 7 weeks of age, 180-220 g) were used. Ten mg of a test compound was suspended or dissolved in 300 μL of ethanol and dissolved by adding 1.2 mL of polyethylene glycol 400 and 1.5 mL of saline to prepare a 3.3 mg/mL solution. A portion of this solution was diluted with a mixture (saline:polyethylene glycol 400:ethanol=5:4:1) to prepare 3.3, 0.33 and 0.033 mg/mL solution. After body weights of the rats were measured, the solution of test compound was intravenously injected to the tail vein at a dose of 3 mL/kg (10, 1, 0.1 mg/kg). For control, only a mixture (saline:polyethylene glycol 400:ethanol=5:4:1) was intravenously injected to the tail vein at a dose of 3 mL/kg. Immediately after intravenous injection to the tail vein, 200 g/L of aqueous glucose solution was orally administered to the rats at a dose of 10 mL/kg (2 g/kg). The intravenous injection to the tail vein was performed with 26 G injection needle and 1 mL syringe. The oral administration was performed with gastric tube for rat and 2.5 mL syringe. The head count in each group was 3. Collection of urine was performed in metabolic cage after the administration of glucose was finished. The sampling time for collection of urine was 24 hours after the administration of glucose. After the collection of urine was finished, the urine volume was recorded and the urinary glucose concentration was measured. The glucose concentration was measured with a kit for laboratory test: Glucose B-Test WAKO (Wako Pure Chemical Industries, Ltd.). The amount of urinary glucose excretion during 24 hours per 200 g of body weight was calculated from the urine volume, urinary glucose concentration and body weight.

The next data set concerns ICR mice. The data set can be described thus: Acute toxicity test. In kind it is in vivo. Conditions: male ICR mice, 300 mg/kg subcutaneous, 5 animals in each group, observation for 24 hours. As for the experimental part: A mixture (saline:polyethylene glycol 400:ethanol=5:4:1) was added to a test compound to prepare 30 mg/mL solution. As experimental animals, 5 week old male ICR mice (CLEA JAPAN, INC. 29-35 g, 5 animals in each group), which were fasted for 4 hours, were used. The above solution was subcutaneously administered at a dose of 10 mL/kg (300 mg/kg) to the above experimental animals and then observation for 24 hours was performed.

One may read the IC50 as the point on the concentration scale where inhibition reaches its midpoint. A lower IC50 goes with greater potency in that assay.

Molecules are shown by their SMILES.

At human SGLT2, `OC/C=C/c1ccc(Cc2ccccc2O[C@@H]2O[C@H](CO)[C@@H](O)[C@H](O)[C@H]2O)cc1` [Example 19, (E)-2-[4-(3-hydroxy-1-prop-1-ene-1-yl)benzyl]phenyl β-D-glucopyranoside] registered a half-maximal inhibitory concentration (IC50) of 120 nM.
At human SGLT2, `CCc1ccc(Cc2ccc(N)cc2O[C@@H]2O[C@H](CO)[C@@H](O)[C@H](O)[C@H]2O)cc1` [Example 29, 5-Amino-2-(4-ethylbenzyl)phenyl β-D-glucopyranoside] yielded an IC50 of 10 nM.
Same read-out and setting: under `Cc1cc(C)c(Cc2ccc(CCCO)cc2)c(O[C@@H]2O[C@H](CO)[C@@H](O)[C@H](O)[C@H]2O)c1` [Example 30, 2-[4-(3-Hydroxypropyl)benzyl]-3,5-dimethylphenyl β-D-glucopyranoside] stands 30 nM.
`Cc1cc(C)c(Cc2ccc(CCO)cc2)c(O[C@@H]2O[C@H](CO)[C@@H](O)[C@H](O)[C@H]2O)c1` [Example 31, 2-[4-(2-Hydroxyethyl)benzyl]-3,5-dimethylphenyl β-D-glucopyranoside] gave a concentration for half-maximal inhibition (IC50) against human SGLT2 of 59 nM.
As for `COc1ccc(Cc2c(C)cc(C)cc2O[C@@H]2O[C@H](CO)[C@@H](O)[C@H](O)[C@H]2O)cc1` [Example 37, 2-(4-Methoxybenzyl)-3,5-dimethylphenyl β-D-glucopyranoside], the results for the “Amount of Urinary Glucose Excretion” value with SD rats (0.1 mg/kg intravenous), in the data set with SD rats (1 mg/kg intravenous) and in the data set with SD rats (10 mg/kg intravenous) were 15 mg/24 hours/200 g body weight, 125 mg/24 hours/200 g body weight and 288 mg/24 hours/200 g body weight, respectively. The Death number in the data set with ICR mice was 0/5. On human SGLT2, this molecule showed an IC50 of 290 nM.
